The values that follow come from US20250059205A1, “Heterocyclic Compounds and Methods of Use” (AMGEN INC., priority 2021, published 2025).

For experiment [1], the system named is Phosphorylation of ERK1/2 in A-427 cells. Nature of the experiment: Phospho-ERK1/2 MSD Assay (A-427 cells). The class given is cell-based. To be noted: Homo sapiens, A-427, 2 h, 2 h treatment, read-out: p-ERK (A427 cells) IC50. In outline:
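ERK1/2 phosphorylation measured by Meso Scale whole-cell lysate assay after A-427 cells were exposed to a titration of compound for 2 h at 37 °C.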

Experiment [2] relates to Phosphorylation of ERK1/2 in AsPC-1 cells. Nature of the experiment: Phospho-ERK1/2 MSD Assay (AsPC-1 cells). Conditions: Homo sapiens, ASPC1, 2 h, 2 hours treatment, read-out: p-ERK (AsPC-1 cells) IC50. Type of experiment: cell-based. In outline: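 Read-out: MSD electrochemiluminescent detection of phosphorylated ERK1/2 in whole-cell lysates, fitted to a 4-parameter logistic curve for IC50. Prior to lysis, AsPC-1 cells (25,000 per well) received a 2 h compound dose-response at 37 °C.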

The target in experiment [3] is GDP-bound KRAS protein (aa 1-169), containing both G12D and C118A amino acid substitutions (Homo sapiens, UniProt P01116, C118A/G12D). Nature of the experiment: KRAS G12D Coupled Nucleotide Exchange Assay. The class given is biochemical. Conditions: 2 h compound pre-incubation. The procedure: Following compound pre-incubation, purified SOS protein (aa 564-1049) and GTP (Roche 10106399001) were added to the assay wells and incubated for an additional 30 min. […] The assay plates were then read on a PerkinElmer EnVision Multilabel Reader, using AlphaScreen® technology, and data were analyzed using a 4-parameter logistic model to calculate IC50 values.
GDP-bound KRAS protein (aa 1-169), containing both G12D and C118A amino acid substitutions, sequence (P01116 1-169 isoform P01116-2 G12D/C118A): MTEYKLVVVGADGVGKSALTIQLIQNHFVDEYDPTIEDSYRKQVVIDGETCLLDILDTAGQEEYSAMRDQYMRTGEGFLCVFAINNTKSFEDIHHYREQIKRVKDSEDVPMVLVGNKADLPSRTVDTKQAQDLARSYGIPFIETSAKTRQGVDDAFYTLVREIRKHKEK

In experiment [4] the target is His-tagged KRAS G12D protein (Homo sapiens, UniProt P01116, G12D). Nature of the experiment: KRAS G12D TR-FRET Assay. Type of experiment: binding.
His-tagged KRAS G12D protein, sequence (P01116 1-188 isoform P01116-2 G12D): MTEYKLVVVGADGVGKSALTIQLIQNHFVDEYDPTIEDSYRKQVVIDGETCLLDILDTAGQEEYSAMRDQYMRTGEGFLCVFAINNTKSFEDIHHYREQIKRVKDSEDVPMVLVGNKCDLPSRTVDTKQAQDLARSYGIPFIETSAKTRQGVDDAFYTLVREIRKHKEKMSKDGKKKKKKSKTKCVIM

Structures are written as SMILES.

Regarding `CCc1cccc2cc(O)cc(-c3cc4nc(OC[C@@]56CCCN5C[C@H](F)C6)nc(N5C[C@H]6CC[C@@H](C5)N6)c4cc3F)c12` [Example 171, 4-(4-((1R,5S)-3,8-diazabicyclo[3.2.1]octan-3-yl)-6-fluoro-2-(((2R,7aS)-2-fluorotetrahydro-1H-pyrrolizin-7a(5H)-yl)methoxy)quinazolin-7-yl)-5-ethylnaphthalen-2-ol], the IC50 in experiment [1] was determined as 42 nM; in experiment [2], 169 nM; in experiment [4], 6 nM. Moreover, the “Avg 2 h Coupled Exchange IC50” value in experiment [3] was 3 nM.
The like results for `C#Cc1cccc2cc(O)cc(-c3cc4nc(OC[C@@]56CCCN5C[C@H](F)C6)nc(N5C[C@H]6CC[C@@H](C5)N6)c4cc3F)c12` [Example 182, 4-(4-((1R,5S)-3,8-diazabicyclo[3.2.1]octan-3-yl)-6-fluoro-2-(((2R,7aS)-2-fluorotetrahydro-1H-pyrrolizin-7a(5H)-yl)methoxy)quinazolin-7-yl)-5-ethynylnaphthalen-2-ol] were, in that order, 4 nM, 33 nM, 1 nM and 2 nM.
The like results for `C#Cc1cccc2cc(O)cc(-c3c(F)cc4c(N5C[C@H]6CC[C@@H](C5)N6)nc(OC[C@@]56CCCN5C[C@H](F)C6)nc4c3F)c12` [Example 190, 4-(4-((1R,5S)-3,8-diazabicyclo[3.2.1]octan-3-yl)-6,8-difluoro-2-(((2R,7aS)-2-fluorotetrahydro-1H-pyrrolizin-7a(5H)-yl)methoxy)quinazolin-7-yl)-5-ethynylnaphthalen-2-ol] were, in that order, 1 nM, 4 nM, 4 nM and 5 nM.
In the case of `Cc1cc(N)nc(-c2ccc3c(N4C[C@H]5CC[C@@H](C4)N5)nc(OC[C@@]45CCCN4C[C@H](F)C5)nc3c2F)c1C(F)(F)F` [Example 229, 6-(4-((1R,5S)-3,8-Diazabicyclo[3.2.1]octan-3-yl)-8-fluoro-2-(((2R,7aS)-2-fluorotetrahydro-1H-pyrrolizin-7a(5H)-yl)methoxy)quinazolin-7-yl)-4-methyl-5-(trifluoromethyl)pyridin-2-amine], the IC50 in experiment [1] stood at 222 nM; in experiment [2] it was 486 nM; in experiment [4], 7 nM. In addition, the “Avg 2 h Coupled Exchange IC50” value in experiment [3] stood at 4 nM.
On the same counts, the results for `CCc1c(F)ccc2cc(O)cc(-c3ccc4c(N5C[C@@H]6CC[C@H]5CN6)nc(OC[C@@]56CCCN5C[C@H](F)C6)nc4c3C)c12` [Example 92, 4-(4-((1S,4S)-2,5-diazabicyclo[2.2. 2]octan-2-yl)-2-(((2R,7aS)-2-fluorotetrahydro-1H-pyrrolizin-7a(5H)-yl)methoxy)-8-methylquinazolin-7-yl)-5-ethyl-6-fluoronaphthalen-2-ol] are 880 nM, 829 nM, 24 nM and 33 nM.
On the same counts, the results for `C#Cc1c(F)ccc2cc(O)cc(-c3ccc4c(N5[C@@H]6CC[C@H]5CNC6)nc(OC[C@@]56CCCN5C[C@H](F)C6)nc4c3F)c12` [Example 187, 4-(4-((1R,5S)-3,8-diazabicyclo[3.2.1]octan-8-yl)-8-fluoro-2-(((2R,7aS)-2-fluorotetrahydro-1H-pyrrolizin-7a(5H)-yl)methoxy)quinazolin-7-yl)-5-ethynyl-6-fluoronaphthalen-2-ol] are 5 nM, 16 nM, 2 nM and 1 nM.
On the same counts, the results for `Fc1c(-c2cccc3cccc(Cl)c23)ccc2c(N3C[C@H]4CC[C@@H](C3)N4)nc(OC[C@@]34CCCN3C[C@H](F)C4)nc12` [Example 55, 4-((1R,5S)-3,8-diazabicyclo[3.2. 1]octan-3-yl)-7-(8-chloronaphthalen-1-yl)-8-fluoro-2-(((2R,7aS)-2-fluorotetrahydro-1H-pyrrolizin-7a(5H)-yl)methoxy) quinazoline] are 1150 nM, 1660 nM, 8 nM and 7 nM.
Regarding `CN1C[C@H](F)C[C@H]1COc1nc(N2[C@@H]3CNC[C@H]2COC3)c2cc(F)c(-c3cc(O)cc4ccccc34)c(F)c2n1` [Example 18, 4-(4-((1R,5S)-3-oxa-7,9-diazabicyclo[3.3. 1]nonan-9-yl)-6,8-difluoro-2-(((2S,4R)-4-fluoro-1-methylpyrrolidin-2-yl)methoxy)quinazolin-7-yl)naphthalen-2-ol], the IC50 in experiment [1] was determined as 1590 nM; in experiment [2] it was 2960 nM; in experiment [4] it was 60 nM. Further, in experiment [3], the “Avg 2 h Coupled Exchange IC50” value was determined as 18 nM.
On to `Cc1c(Cl)cc2[nH]ncc2c1-c1ccc2c(N3[C@@H]4CC[C@H]3CNC4)nc(OC[C@@]34CCCN3C[C@H](F)C4)nc2c1` [Example 38, 4-((1R,5S)-3,8-diazabicyclo[3.2. 1]octan-8-yl)-7-(6-chloro-5-methyl-1H-indazol-4-yl)-2-(((2R,7aS)-2-fluorotetrahydro-1H-pyrrolizin-7a(5H)-yl)methoxy) quinazoline], for which the IC50 is over 10000 nM in experiment [1], 6310 nM in experiment [2] and 195 nM in experiment [4]. In experiment [3], the “Avg 2 h Coupled Exchange IC50” value worked out at 42 nM.
For the compound `CCc1cccc2cc(O)cc(-c3ccc4c(N5[C@@H]6CC[C@H]5CNC6)nc(OC[C@@]56CCCN5C[C@H](F)C6)nc4c3C)c12` [Example 160, 4-(4-((1R,5S)-3,8-diazabicyclo[3.2.1]octan-8-yl)-2-(((2R,7aS)-2-fluorotetrahydro-1H-pyrrolizin-7a(5H)-yl)methoxy)-8-methylquinazolin-7-yl)-5-ethylnaphthalen-2-ol], the IC50 amounted to 410 nM in experiment [1], 754 nM in experiment [2] and 5 nM in experiment [4]. Also, the “Avg 2 h Coupled Exchange IC50” value in experiment [3] came out at 6 nM.
On the same counts, the results for `CCc1c(F)ccc2cc(O)cc(-c3ccc4c(N5C[C@H]6CC[C@@H](C5)N6)nc(OCC5(O)CCC5)nc4c3F)c12` [Example 135, 4-(4-((1R,5S)-3,8-diazabicyclo[3.2.1]octan-3-yl)-8-fluoro-2-((1-hydroxycyclobutyl)methoxy)quinazolin-7-yl)-5-ethyl-6-fluoronaphthalen-2-ol] are 2120 nM, 2270 nM, 10 nM and 9 nM.
For `Fc1c(-c2c(Cl)ccc3[nH]ncc23)ccc2c(N3C[C@H]4CC[C@@H](C3)N4)nc(OC[C@@]34CCCN3C[C@H](F)C4)nc12` [Example 196, 4-((1R,5S)-3,8-diazabicyclo[3.2.1]octan-3-yl)-7-(5-chloro-1H-indazol-4-yl)-8-fluoro-2-(((2R,7aS)-2-fluorotetrahydro-1H-pyrrolizin-7a(5H)-yl)methoxy) quinazoline], the results for the IC50 in experiment [1], in experiment [2] and in experiment [4] were 1360 nM, 2310 nM and 37 nM, respectively. In addition, in experiment [3], the “Avg 2 h Coupled Exchange IC50” value came out at 20 nM.
Regarding `Cc1c(-c2cc(O)cc3cccc(Cl)c23)ccc2c(N3[C@@H]4CC[C@H]3CNC4)nc(OC[C@@]34CCCN3C[C@H](F)C4)nc12` [Example 98, 4-(4-((1R,5S)-3,8-diazabicyclo[3.2. 1]octan-8-yl)-2-(((2R,7aS)-2-fluorotetrahydro-1H-pyrrolizin-7a(5H)-yl)methoxy)-8-methylquinazolin-7-yl)-5-chloronaphthalen-2-ol], the IC50 worked out at 587 nM in experiment [1], 1050 nM in experiment [2] and 13 nM in experiment [4]. The “Avg 2 h Coupled Exchange IC50” value in experiment [3] turned out to be 13 nM.
`Nc1cc(Cl)c(C(F)(F)F)c(-c2ccc3c(N4C[C@H]5CC[C@@H](C4)N5)nc(OC[C@@]45CCCN4C[C@H](F)C5)nc3c2F)n1` [Example 228, 6-(4-((1R,5S)-3,8-Diazabicyclo[3.2.1]octan-3-yl)-8-fluoro-2-(((2R,7aS)-2-fluorotetrahydro-1H-pyrrolizin-7a(5H)-yl)methoxy)quinazolin-7-yl)-4-chloro-5-(trifluoromethyl)pyridin-2-amine]: the IC50 in experiment [1] came out at 77 nM; in experiment [2], 302 nM; in experiment [4], 2 nM. For the same compound, the “Avg 2 h Coupled Exchange IC50” value in experiment [3] was 2 nM.
With `Oc1cc(-c2c(F)cc3c(N4[C@@H]5CNC[C@H]4COC5)nc(OC[C@@]45CCCN4C[C@H](F)C5)nc3c2F)c2ccccc2c1` [Example 14, 4-(4-((1R,5S)-3-oxa-7,9-diazabicyclo[3.3.1]nonan-9-yl)-6,8-difluoro-2-(((2R,7aS)-2-fluorotetrahydro-1H-pyrrolizin-7a(5H)-yl)methoxy)quinazolin-7-yl)naphthalen-2-ol], the IC50 came out at 274 nM in experiment [1], 762 nM in experiment [2] and 9 nM in experiment [4]. Moreover, the “Avg 2 h Coupled Exchange IC50” value in experiment [3] came to 8 nM.
The like results for `CCc1c(F)ccc2cc(O)cc(-c3ccc4c(N5C[C@H]6CC[C@@H](C5)N6)nc(OCC5(O)CCCC5)nc4c3F)c12` [Example 133, 4-(4-((1R,5S)-3,8-diazabicyclo[3.2.1]octan-3-yl)-8-fluoro-2-((1-hydroxycyclopentyl)methoxy)quinazolin-7-yl)-5-ethyl-6-fluoronaphthalen-2-ol] were, in that order, 2430 nM, 2040 nM, 7 nM and 6 nM.
